{
  "source": "patent US8642614B2",
  "about": "“Toll-like receptor modulators and uses thereof” (The Regents of the University of Colorado, a body corporate, priority 2009, dated 2014)",
  "key": {"[1]": {"conditions": "rat, in vivo"}, "[2]": {"tested_on": "HEK293 cells stably transfected with TLR4", "assay": "Cell viability assay (Trypan Blue)", "format": "cell-based, human", "conditions": "tested concentrations, FIG. 4", "experimental": "Human embryonic kidney 293 (HEK293) cells were stably transfected with TLR4 and necessary assembly and signalling proteins (MD2, CD-14, LPSBP, etc.). Cells were cultured in DMEM supplemented with 10% FBS, penicillin (100 U/ml), streptomycin ([…]), L-glutamine (2 mM), 0.1 mg/ml normocin (InvivoGen, CA, USA) and 1×HEK Blue selection reagent (InvivoGen, CA, USA). Cells were implanted in 6 cm plates and grown to 65-75% confluency by incubating at 37° C., prior to drug treatment. On the day of treatment, media was removed from the 6 cm plate and replaced with cerebrospinal fluid (CSF) buffer supplemented with drug treatment. After 24 h incubation at 37° C., CSF was removed and cells were agitated with 0.05% Trypsin plus 0.2 g/l EDTA (Invitrogen, CA, USA) and re-suspended in fresh DMEM supplemented media. After re-suspension, a […] was taken from each 6 cm plate, mixed gently with 100 μl 0.4% Trypan Blue (Sigma, Mo., USA) and allowed to sit for 5 min. The ratio of blue stained cells to total cells was then quantified using a Bright Line 0.1 mm depth hemocytometer (VWR, PA, USA) under a Nikon TMS light microscope (Nikon Instrumentals, CA USA)."}, "TLR4 [3]": {"molecular_target": "T1, TLR4 (Homo sapiens, UniProt O00206)", "T1 sequence (O00206 24-839)": "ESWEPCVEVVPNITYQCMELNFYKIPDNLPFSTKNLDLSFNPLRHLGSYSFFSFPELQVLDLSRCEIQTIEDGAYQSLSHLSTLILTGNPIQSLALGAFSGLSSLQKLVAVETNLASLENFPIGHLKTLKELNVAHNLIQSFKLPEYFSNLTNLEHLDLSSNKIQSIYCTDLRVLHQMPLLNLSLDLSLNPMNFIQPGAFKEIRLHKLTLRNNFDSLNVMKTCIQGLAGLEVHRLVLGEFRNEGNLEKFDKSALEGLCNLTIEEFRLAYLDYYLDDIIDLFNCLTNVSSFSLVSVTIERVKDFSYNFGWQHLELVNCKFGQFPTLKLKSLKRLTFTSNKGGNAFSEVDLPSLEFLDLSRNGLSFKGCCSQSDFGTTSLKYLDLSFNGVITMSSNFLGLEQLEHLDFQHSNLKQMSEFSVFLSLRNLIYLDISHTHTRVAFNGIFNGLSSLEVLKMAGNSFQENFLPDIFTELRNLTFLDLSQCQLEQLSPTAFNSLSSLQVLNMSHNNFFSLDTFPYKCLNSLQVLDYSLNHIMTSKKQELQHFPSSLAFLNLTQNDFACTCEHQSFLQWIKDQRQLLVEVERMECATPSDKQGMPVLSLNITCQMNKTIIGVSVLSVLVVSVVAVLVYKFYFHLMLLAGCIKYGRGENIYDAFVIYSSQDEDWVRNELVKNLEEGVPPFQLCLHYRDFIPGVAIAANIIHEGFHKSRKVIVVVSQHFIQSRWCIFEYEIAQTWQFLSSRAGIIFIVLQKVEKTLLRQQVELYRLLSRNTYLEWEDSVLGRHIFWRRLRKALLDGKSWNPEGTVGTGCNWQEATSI", "assay": "Secreted alkaline phosphatase (SEAP) reporter gene assay in HEK293 cells transfected with TLR4", "format": "cell-based", "conditions": "HEK293, SEAP reporter downstream of NF-κB promoter; dose-dependent manner", "experimental": "FIGS. 3A and 3B. A small dose of chemotactic peptide C5a (25 ng/mL) that stimulates PI3K15 was able to rescue the Akt signaling inhibited by either compound. Global translocation of Akt1-GFP to the plasma membrane was observed, confirming that these cells retained normal Akt signaling transduction functions. Akt1 is directly downstream of TLR4 in the signal transduction pathway. […] Murine macrophages express a variety of TLRs and immune receptors. […] The activity of Compound A-1 was further confirmed in an established TLR4 assay in HEK293 cells, where a secreted alkaline phosphatase reporter gene is located downstream from the NF-κB promoter. Compound A-1 was effective at blocking the downstream proinflammatory effectors of TLR4 in a dose-dependent manner.\nMaterials for the SEAP assay were obtained from Applied Biosystems (CA, USA) and utilized according to the manufacturer's specifications. Human embryonic kidney 293 (HEK293) cells stably transfected with TLR4 and a secreted alkaline phosphatase (SEAP) reporter gene was obtained from Invivogen (CA, USA). […]\nA sample of CSF buffer (15 μL) from each well was collected and transferred to an opaque white 96 well plate (Microfluor 2, Thermo Scientific MA, USA). […] After 20 min, the luminescence of each well was measured using a plate reader (Beckman Coulter, DTX 880, CA, USA) with multimode analysis software."}, "[4]": {"assay": "Hargreaves test (radiant heat withdrawal), intrathecal injection with or without morphine", "conditions": "rat"}, "[5]": {"tested_on": "LPS-induced TLR4 activation", "assay": "Real time microscopy of Akt1-GFP translocation (TLR4 signaling) in RAW264.7 macrophages", "format": "cell-based, mouse", "conditions": "RAW 264.7 Akt1-GFP, LPS 2 ng/ml", "experimental": "Lipopolysaccharide (LPS)-induced TLR4 activation initiates the phosphoinositide 3-kinase (PI3K) cascade, triggering translocation of Akt1 to the plasma membrane in murine macrophages. RAW 264.7 cells transfected with an Akt1-GFP reporter13 were treated with drug then activated with LPS. In the absence of LPS, Akt1-GFP was uniformly diffused throughout the cytosol as observed by fluorescence microscopy. Addition of LPS (2 ng/ml) caused a rapid translocation of Akt1-GFP to the plasma membrane, lowering the Akt1-GFP concentration in the cytosol. Doses of Compound A-1 as low as 2 μM and Compound A-2 as low as 200 nM substantially abolished LPS-induced activation of the signaling pathway.\nFIGS. 3A and 3B. A small dose of chemotactic peptide C5a (25 ng/mL) that stimulates PI3K15 was able to rescue the Akt signaling inhibited by either compound. […]\nTLR4 signaling leads to the simultaneous activation of three parallel intra-cellular signaling pathways. […] Baseline fluorescence was captured for 5 frames, following which vehicle or antagonist was added in 200 μl. Imaging continued for a further 20 frames at which time LPS or test agonist (200 μl) were applied and monitored for a further 20 frames. […] GFP-Akt1 cytosolic clearance was quantified using ImageJ and expressed as a normalized change in cytoplasmic fluorescence over time."}, "TLR4 [6]": {"molecular_target": "T1, TLR4", "assay": "Whole blood model of inflammation (cytokine secretion after LPS or E. coli)", "format": "cell-based", "experimental": "Test of TLR4 inhibition by compounds of the invention with respect to impact on secretion of cytokines IL-6, IL-8, (TNFα) and IL1β in the whole blood model of inflammation was performed using the procedure described by Mollnes et al. (Blood, 2002, 100, 1869-1877) using (i) LPS to compare the two variants of 2126-HCl in a restricted set-up, (ii) gram negative bacteria to initiate innate immune response that involves both TLR4/MD2, TLR2, as well as the complement system (compare to anti-CD14 and compstatin)."}, "TLR4 [7]": {"molecular_target": "TLR4 (Homo sapiens, UniProt O00206+Q9Y6Y9)", "sequence (O00206 24-839, species assumed)": "as the sequence (O00206 24-839) above", "sequence (Q9Y6Y9 19-160, species assumed)": "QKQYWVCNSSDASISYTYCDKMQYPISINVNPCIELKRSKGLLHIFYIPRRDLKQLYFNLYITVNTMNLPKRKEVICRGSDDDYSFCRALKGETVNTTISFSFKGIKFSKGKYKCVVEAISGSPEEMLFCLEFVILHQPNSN"}, "[8]": {"conditions": "clinically employed (−)-opioids"}},
  "note": "Like-named read-outs stand apart in the source and are kept apart here.",
  "data": [
    {"compound": "CCOc1ccc(OCC(O)CN(C)Cc2c(C)nn(Cc3ccccc3Cl)c2C)cc1", "note": "(stereo not drawn) [Compound A-1, 1-(((1-(2-chlorobenzyl)-3,5-dimethyl-1H-pyrazol-4-yl)methyl)(methyl)amino)-3-(4-ethoxyphenoxy)propan-2-ol]", "values": [
      {"measurement": "behavioral effects of compound alone", "setting": "[1]", "value": "no detectable behavioral effects"},
      {"measurement": "cellular toxicity", "setting": "[2]", "value": "neither Compound A-1 nor Compound A-2 showed any significant cellular toxicity"},
      {"measurement": "blocking the downstream proinflammatory effectors of TLR4", "setting": "TLR4 [3]", "value": "effective"},
      {"measurement": "potentiation of the analgesic effects of morphine", "setting": "[4]; with morphine, maximal analgesia recordable (10 s cut-off) across two hours", "value": "significantly potentiated"},
      {"measurement": "effect on pain responsivity in the absence of co-administered morphine", "setting": "[4]; without morphine", "value": "no effect"},
      {"measurement": "dose that substantially abolished LPS-induced activation of the signaling pathway", "setting": "[5]", "value": "≤ 2", "unit": "µM"}
    ]},
    {"compound": "CC[C@H](C)[C@H](N)C(=O)N[C@H]1CSSC[C@@H](C(=O)N[C@H](C(N)=O)[C@@H](C)O)NC(=O)[C@H](CCCN=C(N)N)NC(=O)[C@H](Cc2cnc[nH]2)NC(=O)[C@H](Cc2cnc[nH]2)NC(=O)CNC(=O)[C@H](Cc2c[nH]c3ccccc23)NC(=O)[C@H](CC(=O)O)NC(=O)[C@H](CCC(N)=O)NC(=O)[C@H](C(C)C)NC(=O)[C@H](C(C)C)NC1=O", "note": "[compstatin]", "values": [
      {"measurement": "effect of compstatin on the inhibition of Il-6 levels by anti-CD14 and 2126-HCl", "setting": "TLR4 [6]; E. coli as activator", "value": "increased the inhibitory effect"},
      {"measurement": "reduction of Il-1β plasma levels", "setting": "TLR4 [6]; E. coli stimulation, 2126-HCl 500 μM, compstatin 25 μM", "value": "about 50%"},
      {"measurement": "cytokine release in response to E. coli on addition of compstatin", "setting": "TLR4 [6]; E. coli, added to anti-CD14 or 2126-HCl", "value": "further decreased"},
      {"measurement": "cytokine specificity", "setting": "TLR4 [6]; compstatin itself", "value": "specific for Il8 and Il-1β"},
      {"measurement": "effect on Il-6 secretion / plasma levels", "setting": "TLR4 [6]; whole blood", "value": "little impact"}
    ]},
    {"compound": "CCC(=O)C(CC(C)N(C)C)(c1ccccc1)c1ccccc1", "note": "(stereo not drawn) [methadone]", "values": [
      {"measurement": "TLR4 agonism", "setting": "TLR4 [7]; [8]", "value": "TLR4 agonists"}
    ]},
    {"compound": "CN1CC[C@]23c4c5ccc(O)c4O[C@H]2[C@@H](O)C=C[C@H]3[C@H]1C5", "note": "[morphine]", "values": [
      {"measurement": "TLR4 agonism", "setting": "TLR4 [7]", "value": "TLR4 agonists"}
    ]},
    {"compound": "COc1ccc2c3c1O[C@H]1C(=O)CC[C@@]4(O)[C@@H](C2)N(C)CC[C@]314", "note": "[oxycodone]", "values": [
      {"measurement": "TLR4 agonism", "setting": "TLR4 [7]; [8]", "value": "TLR4 agonists"}
    ]},
    {"compound": "CCOC(=O)C1(c2ccccc2)CCN(C)CC1", "note": "[pethadine/meperidine]", "values": [
      {"measurement": "TLR4 agonism", "setting": "TLR4 [7]; [8]", "value": "TLR4 agonists"}
    ]}
  ]
}
